Drawing on patent publication US12281122B1, “PI3K inhibitors” (Cogent Biosciences, Inc., priority 2023, dated 2025), this text covers IC50 for 19 compounds.

Test [1] deals with SKBR3 (PI3Kα-Wild Type) cell line. The experiment in a line: HTRF phospho-AKT(S473) cell assay in SKBR3 cells. Format: cell-based, human. The method, boiled down: (§1)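 T47D (PI3Kα-H1047R; RPMI, 10% FBS, insulin) and SKBR3 (wild-type PI3Kα; McCoy's 5A, 10% FBS) cells treated 2 h at 37 °C with 12-point 1:3 dilutions, top 5 μM and 10 μM respectively, ≤0.5% DMSO. SKBR3 stimulated with 70 ng/ml PDGF-BB for the last 15 min; lysate pAKT(S473) by HTRF, IC50 from curves.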
(In general: TR-FRET usually uses a lanthanide donor and a delayed reading to cut background.)

For test [2], the system named is T47D (PI3Kα-H1047R) cell line. The test is described as follows: HTRF phospho-AKT(S473) cell assay in T47D cells. In kind it is cell-based, human. Summed up:
as §1

Setting [3] is: Homo sapiens, SK-BR-3; HTRF phospho-AKT(S473), SKBR3 (PI3Kα-Wild Type) cells, 2 hours compound incubation, PDGF-BB stimulated.
Where [4] appears, read: Homo sapiens; HTRF phospho-AKT(S473), T47D (PI3Kα-H1047R) cells, 2 hours compound incubation.
Setting [5] is: Homo sapiens, SK-BR-3; SKBR3 (PI3Kα-Wild Type) cells, HTRF phospho-AKT(S473), 2 hours compound incubation, PDGF-BB stimulated.
Where [6] appears, read: Homo sapiens; T47D (PI3Kα-H1047R) cells, HTRF phospho-AKT(S473), 2 hours compound incubation.

Regarding `Cc1cc([C@@H](C)Nc2ccc(Cl)nc2C(=O)NS(C)(=O)=O)c2nc(-c3ccc(OCCN4CCOCC4)cc3)n(C)c(=O)c2c1` [Compound 793, (R)-6-chloro-3-((1-(3,6-dimethyl-2-(4-(2-morpholinoethoxy)phenyl)-4-oxo-3,4-dihydroquinazolin-8-yl)ethyl)amino)-N-(methylsulfonyl) picolinamide], the IC50 in test [1] (setting [3]) was at least 5000 nM; in test [2] (setting [4]) it was under 250 nM.

Consider `Cc1cc([C@@H](C)Nc2ccc(Cl)nc2C(=O)NS(C)(=O)=O)c2nc(N3CCC[C@H](c4cnn(CC(F)(F)F)c4)C3)n(C)c(=O)c2c1` (relative stereo) [Compound 231, 6-chloro-3-(((R)-1-(3,6-dimethyl-4-oxo-2-((R*)-3-(1-(2,2,2-trifluoroethyl)-1H-pyrazol-4-yl)piperidin-1-yl)-3,4-dihydroquinazolin-8-yl)ethyl)amino)-N-(methylsulfonyl) picolinamide], for which the IC50 in test [1] (setting [5]) is 1000 to 5000 nM; in test [2] (setting [6]) it was under 250 nM.

On to `Cc1cc([C@@H](C)Nc2ccc(Cl)nc2C(=O)NS(C)(=O)=O)c2nc(N3CCC4(CCc5c(cnn5C)C4)CC3)n(C)c(=O)c2c1` [Compound 344, (R)-6-chloro-3-((1-(3,6-dimethyl-2-(1-methyl-1,4,6,7-tetrahydrospiro[indazole-5,4′-piperidin]-1′-yl)-4-oxo-3,4-dihydroquinazolin-8-yl)ethyl)amino)-N-(methylsulfonyl) picolinamide], for which the results for the IC50 in test [1] (setting [5]) and in test [2] (setting [6]) were at least 5000 nM and under 250 nM, respectively.

Regarding `Cc1cc([C@@H](C)Nc2ccc(Cl)nc2C(=O)NS(C)(=O)=O)c2nc(N3C[C@@H]4[C@H](C3)[C@H]4c3nn(C)cc3F)n(C)c(=O)c2c1` [Compound 391, 6-chloro-3-(((R)-1-(2-((1R,5S,6R)-6-(4-fluoro-1-methyl-1H-pyrazol-3-yl)-3-azabicyclo[3.1.0]hexan-3-yl)-3,6-dimethyl-4-oxo-3,4-dihydroquinazolin-8-yl)ethyl)amino)-N-(methylsulfonyl) picolinamide], the IC50 in test [1] (setting [5]) lay within 1000 to 5000 nM; in test [2] (setting [6]), 250 to 500 nM.

For the compound `Cc1cc([C@@H](C)Nc2ccc(Cl)nc2C(=O)NS(C)(=O)=O)c2nc(C3CCN(c4nn(C)cc4F)CC3)n(C)c(=O)c2c1` [Compound 429, (R)-6-chloro-3-((1-(2-(1-(4-fluoro-1-methyl-1H-pyrazol-3-yl)piperidin-4-yl)-3,6-dimethyl-4-oxo-3,4-dihydroquinazolin-8-yl)ethyl)amino)-N-(methylsulfonyl) picolinamide], the IC50 in test [1] (setting [5]) was at least 5000 nM; in test [2] (setting [6]), 250 to 500 nM.

With `Cc1cc([C@@H](C)Nc2ccc(Cl)nc2C(=O)NS(C)(=O)=O)c2nc(N3CCC(n4nccc4N(C)C)CC3)n(C)c(=O)c2c1` [Compound 309, (R)-6-chloro-3-((1-(2-(4-(5-(dimethylamino)-1H-pyrazol-1-yl)piperidin-1-yl)-3,6-dimethyl-4-oxo-3,4-dihydroquinazolin-8-yl)ethyl)amino)-N-(methylsulfonyl) picolinamide], the IC50 is at least 5000 nM in test [1] (setting [5]) and 250 to 500 nM in test [2] (setting [6]).

Turning to `Cc1cc([C@@H](C)Nc2ccc(Cl)nc2C(=O)NS(C)(=O)=O)c2nc(N3Cc4cn(-c5ncccc5C)nc4C3)n(C)c(=O)c2c1` [Compound 701, (R)-6-chloro-3-((1-(3,6-dimethyl-2-(2-(3-methylpyridin-2-yl)-2,6-dihydropyrrolo[3,4-c]pyrazol-5(4H)-yl)-4-oxo-3,4-dihydroquinazolin-8-yl)ethyl)amino)-N-(methylsulfonyl) picolinamide], the 50% inhibitory concentration (IC50) in test [1] (setting [3]) is at least 5000 nM; in test [2] (setting [4]) it was 250 to 500 nM.

In the case of `CCn1c(N2CCC(c3nn(C)cc3F)CC2)nc2c([C@@H](C)Nc3ccc(Cl)nc3C(=O)NS(C)(=O)=O)cc(C)cc2c1=O` [Compound 433, (R)-6-chloro-3-((1-(3-ethyl-2-(4-(4-fluoro-1-methyl-1H-pyrazol-3-yl)piperidin-1-yl)-6-methyl-4-oxo-3,4-dihydroquinazolin-8-yl)ethyl)amino)-N-(methylsulfonyl) picolinamide], the IC50 in test [1] (setting [5]) is at least 5000 nM; in test [2] (setting [6]), under 250 nM.

Consider `Cc1cc([C@@H](C)Nc2ccc(Cl)nc2C(=O)NS(C)(=O)=O)c2nc(N3CCC[C@@H](c4cncc(C#N)c4)C3)n(C)c(=O)c2c1` (relative stereo) [Compound 263, 6-chloro-3-(((R)-1-(2-((R*)-3-(5-cyanopyridin-3-yl)piperidin-1-yl)-3,6-dimethyl-4-oxo-3,4-dihydroquinazolin-8-yl)ethyl)amino)-N-(methylsulfonyl) picolinamide], for which the IC50 in test [1] (setting [5]) was 1000 to 5000 nM; in test [2] (setting [6]) it was under 250 nM.

As for `Cc1cc([C@@H](C)Nc2ccc(Cl)nc2C(=O)NS(C)(=O)=O)c2nc(N3CCC[C@@H](c4nccc(C)n4)C3)n(C)c(=O)c2c1` (mixture of isomers) [Compound 633, 6-chloro-3-(((R)-1-(3,6-dimethyl-2-((RS)-3-(4-methylpyrimidin-2-yl)piperidin-1-yl)-4-oxo-3,4-dihydroquinazolin-8-yl)ethyl)amino)-N-(methylsulfonyl) picolinamide], the results for the IC50 in test [1] (setting [3]) and in test [2] (setting [4]) were at least 5000 nM and 250 to 500 nM, respectively.

`Cc1cc([C@@H](C)Nc2ccc(Cl)nc2C(=O)NS(C)(=O)=O)c2nc(N3C[C@@H]4CC(c5ccn(C)n5)C[C@H]4C3)n(C)c(=O)c2c1` (single isomer, unassigned) [Compound 426, 6-chloro-3-(((R)-1-(3,6-dimethyl-2-((3aR*,6aR*)-5-(1-methyl-1H-pyrazol-3-yl)hexahydrocyclopenta [c]pyrrol-2(1H)-yl)-4-oxo-3,4-dihydroquinazolin-8-yl)ethyl)amino)-N-(methylsulfonyl) picolinamide]: the values for the IC50 in test [1] (setting [5]) and in test [2] (setting [6]) were at least 5000 nM and 250 to 500 nM, respectively.

Regarding `Cc1cc([C@@H](C)Nc2ccc(Cl)nc2C(=O)NS(C)(=O)=O)c2nc(N3CCC4(CCCN(c5ccn(C)n5)C4)C3)n(C)c(=O)c2c1` (stereo partly drawn) [Compound 708, 6-chloro-3-(((1R)-1-(3,6-dimethyl-2-(7-(1-methyl-1H-pyrazol-3-yl)-2,7-diazaspiro[4.5]decan-2-yl)-4-oxo-3,4-dihydroquinazolin-8-yl)ethyl)amino)-N-(methylsulfonyl) picolinamide], the concentration for half-maximal inhibition (IC50) in test [1] (setting [3]) was at least 5000 nM; in test [2] (setting [4]), 250 to 500 nM.

Take `Cc1cc([C@@H](C)Nc2ccc(Cl)nc2C(=O)NS(C)(=O)=O)c2nc([C@H]3[C@@H]4CN(c5ncc(Cl)cn5)C[C@@H]43)n(C)c(=O)c2c1` [Compound 825, 6-chloro-3-(((R)-1-(2-((1R,5S,6r)-3-(5-chloropyrimidin-2-yl)-3-azabicyclo[3.1.0]hexan-6-yl)-3,6-dimethyl-4-oxo-3,4-dihydroquinazolin-8-yl)ethyl)amino)-N-(methylsulfonyl) picolinamide]: the IC50 in test [1] (setting [3]) is at least 5000 nM; in test [2] (setting [4]), 1000 to 5000 nM.

Consider `Cc1cc([C@@H](C)Nc2ccc(Cl)nc2C(=O)NS(C)(=O)=O)c2nc(-c3cnc(N4CCOCC4)nc3)n(C)c(=O)c2c1` [Compound 814, (R)-6-chloro-3-((1-(3,6-dimethyl-2-(2-morpholinopyrimidin-5-yl)-4-oxo-3,4-dihydroquinazolin-8-yl)ethyl)amino)-N-(methylsulfonyl) picolinamide], for which the figures for the IC50 in test [1] (setting [3]) and in test [2] (setting [4]) were 1000 to 5000 nM and under 250 nM, respectively.

Consider `Cc1cc([C@@H](C)Nc2ccc(Cl)nc2C(=O)NS(C)(=O)=O)c2nc(N3CCN(c4nccnc4C)CC3)n(C)c(=O)c2c1` [Compound 553, (R)-6-chloro-3-((1-(3,6-dimethyl-2-(4-(3-methylpyrazin-2-yl)piperazin-1-yl)-4-oxo-3,4-dihydroquinazolin-8-yl)ethyl)amino)-N-(methylsulfonyl) picolinamide], for which the concentration for half-maximal inhibition (IC50) in test [1] (setting [3]) was 1000 to 5000 nM; in test [2] (setting [4]), under 250 nM.

`Cc1cc([C@@H](C)Nc2ccc(Cl)nc2C(=O)NS(C)(=O)=O)c2nc(N3Cc4cnn(-c5ccccc5C)c4C3)n(C)c(=O)c2c1` [Compound 191, (R)-6-chloro-3-((1-(3,6-dimethyl-4-oxo-2-(1-(o-tolyl)-4,6-dihydropyrrolo[3,4-c]pyrazol-5(1H)-yl)-3,4-dihydroquinazolin-8-yl)ethyl)amino)-N-(methylsulfonyl) picolinamide]: the IC50 in test [1] (setting [5]) was at least 5000 nM; in test [2] (setting [6]) it was under 250 nM.

In the case of `COc1cc([C@H]2[C@@H]3CN(c4nc5c([C@@H](C)Nc6ccc(Cl)nc6C(=O)NS(C)(=O)=O)cc(C)cc5c(=O)n4C)C[C@@H]32)nn1C` [Compound 542, 6-chloro-3-(((R)-1-(2-((1R,5S,6R)-6-(5-methoxy-1-methyl-1H-pyrazol-3-yl)-3-azabicyclo[3.1.0]hexan-3-yl)-3,6-dimethyl-4-oxo-3,4-dihydroquinazolin-8-yl)ethyl)amino)-N-(methylsulfonyl) picolinamide], the IC50 was at least 5000 nM in test [1] (setting [3]) and 250 to 500 nM in test [2] (setting [4]).

In the case of `Cc1cc([C@@H](C)Nc2ccc(Cl)nc2C(=O)NS(C)(=O)=O)c2nc(N3CCC(n4nncc4C)CC3)n(C)c(=O)c2c1` [Compound 626, (R)-6-chloro-3-((1-(3,6-dimethyl-2-(4-(5-methyl-1H-1,2,3-triazol-1-yl)piperidin-1-yl)-4-oxo-3,4-dihydroquinazolin-8-yl)ethyl)amino)-N-(methylsulfonyl) picolinamide], the concentration for half-maximal inhibition (IC50) lay in the range of 1000 to 5000 nM in test [1] (setting [3]) and 250 to 500 nM in test [2] (setting [4]).

Take `Cc1cc([C@@H](C)Nc2ccc(Cl)nc2C(=O)NS(C)(=O)=O)c2nc(N3CCN(c4ccccn4)CC3)n(C)c(=O)c2c1` [Compound 182, (R)-6-chloro-3-((1-(3,6-dimethyl-4-oxo-2-(4-(pyridin-2-yl)piperazin-1-yl)-3,4-dihydroquinazolin-8-yl)ethyl)amino)-N-(methylsulfonyl) picolinamide]: the values for the IC50 in test [1] (setting [5]) and in test [2] (setting [6]) were 1000 to 5000 nM and under 250 nM, respectively.

As usually defined, the IC50 is the concentration that gives 50% inhibition. A high value points to weaker potency.
